In PMC5880945, “D-Arg^0-Bradykinin-Arg-Arg, a Latent Vasoactive Bradykinin B2 Receptor Agonist Metabolically Activated by Carboxypeptidases” (Frontiers in Pharmacology, 2018):
Entries after “also recorded” stand apart in the source; their conditions may differ. Read-outs that look alike come from different tables or passages of the source. Square brackets hold non-standard residues; d marks the D form. Peptide text beside a SMILES is read from it.

Columns and labels:
anesthetized rats = experiment: In vivo hemodynamics in anesthetized rats pretreated with icatibant or peptidase inhibitors; design: species or system male Sprague-Dawley rats; details: 1.6 μg/kg i.v.; for hypotensive response after Plummer’s inhibitor, in words: Dunnett’s P < 0.05 (r-BK-RR); for heart rate response after enalaprilat + Plummer’s inhibitor, in words / duration of hypotensive episode after enalaprilat + Plummer’s inhibitor, in words / hypotensive response after enalaprilat + Plummer’s inhibitor, in words: enalaprilat 0.1 mg/kg + Plummer’s inhibitor 0.75 mg/kg i.v. 15 min before; for duration of hypotensive episode after enalaprilat + Plummer’s inhibitor, in words / hypotensive response after enalaprilat + Plummer’s inhibitor, in words: Dunnett’s P < 0.01 (r-BK); for hypotensive response after enalaprilat + Plummer’s inhibitor, in words: P < 0.05 (r-BK-RR); for duration of hypotensive episode after enalaprilat, in words: Dunnett’s P < 0.001 (r-BK-RR); for duration of residual hypotensive episode after icatibant, in words / heart rate response after icatibant, in words / hypotensive response after icatibant, in words: icatibant 75 μg/kg i.v. 15 min before; for hypotensive response after icatibant, in words: Dunnett’s P < 0.001 (r-BK), P < 0.01 (r-BK-RR)
Protocol: All surgical and experimental procedures were reviewed and approved by the Animal Care and Handling Committee of Laval University, in accordance with the Canadian Council on Animal Care. Experiments were performed on male Sprague-Dawley rats (300–375 g) purchased from Charles River Laboratories (St-Constant, QC, Canada). The rats were housed in a light-controlled (12:12-h light-dark cycle (lights on at 0600)) and temperature-regulated room (22 ± 1°C). Animals had free access to normal chow diet and tap water. They were allowed to acclimate to their environmental conditions for 1 week prior to being studied. At the end of the acclimation period, the rats were anesthetised with sodium pentobarbital (50 mg kg^-1, i.p., supplemented as required) and had one catheter implanted into the right jugular vein [for intravenous (i.v.) injection] and one into the left femoral artery [for direct and continuous measurement of blood pressure and heart rate as previously described ([Jean et al., 2016])]. Experiments started at least 20 min following the end of surgery in anesthetised rats.
The mechanism subserving the cardiovascular responses to random i.v. injections of r-BK and r-BK-RR at the dose of 1.6 μg/kg, was evaluated in rats pretreated with specific antagonists. In these experiments, the rats were separated in four groups depending on the antagonist tested, and the cardiovascular responses to the peptides agonists were compared with those elicited in the untreated control group of rats. In the first group of treated rats, the long acting and selective B2R antagonist, icatibant (Hoe 140) (D-Arg-[Hyp^3, Thi^5, D-Tic^7, Oic^8]) bradykinin ([Hock et al., 1991]; [Wirth et al., 1991]; [Rhaleb et al., 1992]; [Marceau et al., 1994]) was intravenously administered as bolus (75 μg/kg, 0.1 ml) following a 10 min period of baseline measurements of heart rate and blood pressure. Fifteen minutes later, recording changes in blood pressure and heart rate elicited by i.v. injection of peptide vehicle (saline-BSA 0.1%) followed by random injections of r-BK and r-BK-RR, were made as described above. The next peptide was administered once all recorded cardiovascular parameters had returned to baseline after the previous injection. Further experiments were made in a second group of rats pretreated with the ACE inhibitor, enalaprilat. In these experiments, enalaprilat was intravenously administered as bolus ([…], 0.1 ml) 15 min before the i.v. injections of peptide vehicle and both customized peptides, as above. Further experiments were also carried out in rats pretreated with the Plummer’s inhibitor (mercaptomethyl-3-guanidinoethylthiopropanoic acid) a high affinity inhibitor of arginine carboxypeptidases that is an arginine analog ([Plummer and Ryan, 1981]). The inhibitor was intravenously administered as bolus (0.75 mg/kg, 0.1 ml) followed 15 min later by the i.v. injections of saline-BSA 0.1%, and then r-BK and -r-BK-RR (1.6 μg/kg) in random order. A fourth group of rats was pretreated with a combined i.v. injection of enalaprilat (0.1 mg/kg) and the Plummer’s inhibitor (0.75 mg/kg) 15 min before the randomized i.v. injections of both customized peptides, as above. The doses of different inhibitors were based on preliminary experiments and from previous studies performed by us and others ([Ishida et al., 1989]; [Wirth et al., 1991]; [Muto et al., 2003]; [Jean et al., 2016]). At the end of the experiments the rats were euthanized with an overdose of sodium pentobarbital (240 mg/kg, i.v.).
Results are presented as means ± SEM. Radioligand binding data were fitted by non-linear regression to a one-site competition equation using a least-square method (Prism 5.0, GraphPad Software Inc., San Diego, CA, United States) and IC50 values calculated from this procedure. […]

[1] = system: B2R, human isolated umbilical vein; experiment: Human umbilical vein contractility assay (bioassay for the endogenous B2R); details: for EC50: 95% confidence limits in parentheses, read-out: contractile EC50; for contractile potency, in words: human umbilical vein
Protocol: The institutional research ethics board (CHU de Québec) approved the anonymous use of human umbilical cord segments obtained after elective cesarean section deliveries (file number: 2012-323). Informed written consent was obtained from mothers. Umbilical vein rings, used as a contractile bioassay for the BK B2R, were prepared and suspended in organ baths and submitted to equilibration in Krebs’ solution as described ([Marceau et al., 1994]; [Gera et al., 2011]). The vascular preparation was used to assess the effect of the peptidase inhibitors (introduced 30 min before the agonist) on the apparent potency of r-BK and r-BK-RR. The full cumulative concentration-effect curves were recorded for each peptide; a large concentration of BK (9.4 μM) was added to record the maximal contractile effect mediated by the B2Rs for low potency agonists. Tissues were used only once and discarded; controls curves were obtained from other vascular rings from the same vein.
Results are presented as means ± SEM. Radioligand binding data were fitted by non-linear regression to a one-site competition equation using a least-square method (Prism 5.0, GraphPad Software Inc., San Diego, CA, United States) and IC50 values calculated from this procedure. The same computer program was used to draw concentration-effect curves generated with the contractility assay (least square fitting of sigmoidal dose-response equation with variable slope) and to derive contractile EC50 values. Data describing the dose-response relationship of novel peptides vs. hypotension and heart rate changes, the baseline values of heart rate and mean arterial blood pressure and the effect of drugs on the hemodynamic responses to r-B K and r-BK-RR were assessed by using one-way analysis of variance (ANOVA) followed by the Dunnett’s test (repeated comparison with a common control; Prism 5.0 software).

[2] = system: GFP-tagged rabbit B2R (B2R-GFP); experiment: B2R-GFP endocytosis and recycling, epifluorescence microscopy, HEK 293 cells; assay type: cell-based; details: 30 min vs 3 h of stimulation
[3] = Plummer’s inhibitor 0.75 mg/kg i.v. 15 min before
[4] = enalaprilat 0.1 mg/kg i.v. 15 min before
[5] = enalaprilat 0.1 mg/kg i.v. 15 min before, Dunnett’s P < 0.05 (r-BK)
[6] = + Plummer’s inhibitor 1 μM, 30 min before agonist
[7] = + enalaprilat 1 μM + Plummer’s inhibitor 1 μM, 30 min before agonist
[8] = + enalaprilat 1 μM, 30 min before agonist

SMILES | heart rate (tachycardic) response after Plummer’s inhibitor, in words (anesthetized rats; [3]) | hypotensive response after Plummer’s inhibitor, in words (anesthetized rats; [3]) | heart rate response after enalaprilat + Plummer’s inhibitor, in words (anesthetized rats) | duration of hypotensive episode after enalaprilat + Plummer’s inhibitor, in words (anesthetized rats) | hypotensive response after enalaprilat + Plummer’s inhibitor, in words (anesthetized rats) | duration of hypotensive episode after enalaprilat, in words (anesthetized rats; [4]) | hypotensive response after enalaprilat, in words (anesthetized rats; [5]) | duration of residual hypotensive episode after icatibant, in words (anesthetized rats) | heart rate response after icatibant, in words (anesthetized rats) | hypotensive response after icatibant, in words (anesthetized rats) | EC50 [1, 6] | EC50 [1, 7] | EC50 [1, 8] | EC50 ([1]; control (no inhibitor)) | contractile potency, in words [1] | other results
N=C(N)NCCC[C@@H](N)C(=O)N[C@@H](CCCNC(=N)N)C(=O)N1CCC[C@H]1C(=O)N1CCC[C@H]1C(=O)NCC(=O)N[C@@H](Cc1ccccc1)C(=O)N[C@@H](CO)C(=O)N1CCC[C@H]1C(=O)N[C@@H](Cc1ccccc1)C(=O)N[C@@H](CCCNC(=N)N)C(=O)N[C@@H](CCCNC(=N)N)C(=O)N[C@@H](CCCNC(=N)N)C(=O)O [r-BK-RR, D-Arg^0-BK-Arg-Arg] (H-[dR]RPPGFSPFRRR-OH) | not different from those seen in untreated rats | significantly reduce the hypotensive response | not different from those seen in untreated rats | not different from those seen in untreated rats | significantly reduce the hypotensive response | significantly increase the duration of the hypotensive episode | no significant effect on the hypotensive response | not different from those of controls | not different from those of controls | strongly reduce the hypotensive response | 850 nM | 1760 nM | 1510 nM | 431 nM | less potent than r-BK but more potent than anticipated from the radioligand binding competition assay | duration of hypotensive episode after Plummer’s inhibitor, in words (anesthetized rats; [3]): not different from those seen in untreated rats; effect of combination Plummer’s inhibitor + enalaprilat vs. enalaprilat alone, in words ([1]; 1 μM each): not significantly more effective than enalaprilat alone; effect of Plummer’s inhibitor on apparent contractile potency, in words ([1]; Plummer’s inhibitor 1 μM): only slightly decreased the apparent potency
N=C(N)NCCC[C@@H](N)C(=O)N[C@@H](CCCNC(=N)N)C(=O)N1CCC[C@H]1C(=O)N1CCC[C@H]1C(=O)NCC(=O)N[C@@H](Cc1ccccc1)C(=O)N[C@@H](CO)C(=O)N1CCC[C@H]1C(=O)N[C@@H](Cc1ccccc1)C(=O)N[C@@H](CCCNC(=N)N)C(=O)O [r-BK, D-Arg^0-BK] (H-[dR]RPPGFSPFR-OH) | no effect | no effect | not different from that seen in untreated rats | significantly potentiated | significantly potentiated | not different from that seen in untreated rats | significantly potentiated | comparable to those seen in the untreated group | comparable to those seen in the untreated group | significantly inhibited | 68.4 nM | 45.1 nM | 61.6 nM | 62.4 nM | potent contractile agent | persistence of B2R-GFP endocytosis, in words [2]: reversible as a function of incubation time, as that of BK; also recorded: not more persistent; tachycardic response after enalaprilat, in words (anesthetized rats; [5]): significantly potentiated (P < 0.05, Dunnett’s test) as was the tachycardic response; effect of enalaprilat and/or Plummer’s inhibitor on contractile response, in words ([1]; enalaprilat and/or Plummer’s inhibitor, 1 μM each): essentially unaffected; also recorded: enalaprilat failed to potentiate r-BK
